Laboratory results taken from patent US12552767B2, “3-heteroaryl pyrrolidine and piperidine orexin receptor agonists” (Merck Sharp & Dohme LLC, priority 2020, dated 2026).

Molecular target: T1, human OX2R (Homo sapiens, UniProt O43614)
T1 construct: expressed in transfected cells; host or cells: CHO (Chinese hamster ovary) cells, grown under G418 selection
T1 sequence (O43614 1-444): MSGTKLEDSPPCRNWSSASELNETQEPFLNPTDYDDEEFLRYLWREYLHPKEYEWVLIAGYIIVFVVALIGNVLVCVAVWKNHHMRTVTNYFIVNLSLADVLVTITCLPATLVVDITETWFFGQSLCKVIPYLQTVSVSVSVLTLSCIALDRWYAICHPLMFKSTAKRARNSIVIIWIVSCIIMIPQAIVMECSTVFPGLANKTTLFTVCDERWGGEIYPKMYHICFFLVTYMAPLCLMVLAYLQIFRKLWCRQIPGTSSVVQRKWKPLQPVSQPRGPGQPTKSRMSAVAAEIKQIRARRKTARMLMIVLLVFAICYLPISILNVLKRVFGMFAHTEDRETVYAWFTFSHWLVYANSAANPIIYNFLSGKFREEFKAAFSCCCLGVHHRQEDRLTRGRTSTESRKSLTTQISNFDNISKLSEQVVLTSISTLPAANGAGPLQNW
Experiment: IP-One (IPOne) orexin receptor agonist assay in CHO cells expressing human OX2R
Format: cell-based
Conditions: for EC50: CHO cells expressing human OX2R, IP-One IP-1 detection, 2 hours incubation, four parameter logistic fit, read-out: OX2R Potency, EC50; for % of reference agonist maximal effect: human OX2R, percentage of sample raw value/mean max effect (reference compound at 1 uM with 100% activity)
From the text: The utility of the compounds in accordance with the present invention as orexin receptor OX1R and/or OX2R agonists may be readily determined without undue experimentation by methodology well known in the art. Both the OX1R and/or OX2R G-coupled protein receptors (GPCRs) couple through the Gαq signaling pathway, which ultimately promotes calcium mobilization via inositol triphosphate (IP3) production. The half-life of IP-3 is relatively short, being rapidly metabolized to inositol monophosphate (IP-1), which can be readily detected using a commercially available assay kit (IP-One; Cisbio; cat #621PAPEC) coupled with a cell line expressing the target receptor(s) of interest. The utility of the compounds in accordance with the present invention as orexin receptor OX1R and/or OX2R agonists may be determined utilizing this assay.
In a typical experiment, the OX1 and OX2 receptor agonist activity is determined in accordance with the following general experimental method. Chinese hamster ovary (CHO) cells expressing human OX1R and/or the human OX2R were grown in Iscove's modified DMEM containing glutaMAX™, 1% G418, 100 U/mL penicillin, 100 μg/mL streptomycin and 10% heat-inactivated qualified fetal bovine serum (FBS). The OX2R cells were seeded at 10,000 cells/well/50 μL and the OX1R cells were seeded at 20,000 cells/well/50 μL into 384-well white tissue culture plates (Greiner; cat #781080). All cell/media reagents were from GIBCO-Invitrogen Corp. The seeded cell plate(s) were incubated at 37° C. with 5% CO2 and 85% humidity for 20-24 hours. On the day of the assay, assay-ready compound plates were prepared using an acoustic liquid handler (ECHO; Labcyte), which dispensed sufficient volume of test compound stock (10 mM in DMSO) or 100% DMSO to prepare 10 point, ½-log dilutions in a final volume of 202.5 nL/well in all test wells of a 384-well diamond plate (Labcyte). Following completion of assay-ready plates, importantly, the next three steps were performed with minimal delay: 1) 20 μl of 1× stimulation buffer was added to the compound plate using a Multidrop Combi (small cassette, Thermo Fisher Scientific cat #24073290); 2) culture medium was removed from the cell plate using the Bluewasher plate washer (gentle spin; BlueCatBio); 3) 14 μl of compound/stimulation buffer mixture was added to the cell plate using a Bravo liquid handler (Agilent) prior to incubating cell plates at 37° C. with 5% CO2 and 85% humidity for 1 or 2 hours (OX1R and OX2R, respectively). During this incubation, IP-one detection reagents were prepared (38:1:1 lysis buffer:D2:AB-cryptate reagents). Six μL of mixed detection reagents were added to the cell plate using a Multidrop Combi (small cassette, Thermo Fisher Scientific cat #24073290) and incubated 60 minutes at room temperature in the dark. Fluorescence signal was detected using an Envision plate reader (Perkin Elmer) [LANCE/DELFIA Dual Enh (Em: APC 665; Ex: Cy5 620)].
For each compound, data were fit to a four parameter logistic fit (ActivityBase software) and the EC50 was reported as the inflection point of the resulting curve. Percent effect for each test compound was determined as the percentage of sample raw value/mean max effect, where the mean max effect was derived from the mean raw value of 32 control wells per assay plate (using Orexin A (cat #003-30) at 1 μM for human OX1R and a reference compound at 1 uM with 100% activity previously established by comparison to Orexin A for human OX2R). The intrinsic orexin receptor agonist activity of a compound which may be used in the present invention may be determined by these assays.

| EC50 [µM] | % of reference agonist maximal effect [%] | SMILES |
| --- | --- | --- |
| 4.34 | 96.1 | CC(C)(O)C(=O)N1CCC[C@H](c2cc[nH]n2)[C@@H]1CO[C@H]1CC[C@@H](c2ccccc2)CC1 (relative stereo) [Example 77, 2-hydroxy-2-methyl-1-((CIS)-2-((((CIS)-4-phenylcyclohexyl)oxy)methyl)-3-(1H-pyrazol-3-yl)piperidin-1-yl)propan-1-one] |
| 4.43 | 92.6 | O=C(N1CCC[C@H](c2cc[nH]n2)[C@@H]1CO[C@H]1CC[C@@H](c2ccccc2)CC1)C1(O)CC1 (relative stereo) [Example 78, (1-hydroxycyclopropyl)((CIS)-2-((((CIS)-4-phenylcyclohexyl)oxy)methyl)-3-(1H-pyrazol-3-yl)piperidin-1-yl)methanone] |
| 5.31 | 83.2 | CC(C)[C@H]1CC[C@@H](OC[C@H]2[C@@H](c3cc[nH]n3)CCCN2C(=O)C2CCC2)CC1 (relative stereo) [Example 79, cyclobutyl((CIS)-2-((((CIS)-4-isopropylcyclohexyl)oxy)methyl)-3-(1H-pyrazol-3-yl)piperidin-1-yl)methanone] |
| 5.55 | 87.5 | CC1(C(=O)N2CCC[C@H](c3cc[nH]n3)[C@@H]2CO[C@H]2CC[C@@H](c3ccccc3)CC2)CC1 (relative stereo) [Example 80, (1-methylcyclopropyl)((CIS)-2-((((CIS)-4-phenylcyclohexyl)oxy)methyl)-3-(1H-pyrazol-3-yl)piperidin-1-yl)methanone] |
| 5.65 | 70.0 | CC(C)[C@H]1CC[C@@H](OC[C@H]2[C@@H](c3cc[nH]n3)CCCN2C(=O)C2CC2(C)C)CC1 (relative stereo) [Example 81, (2,2-dimethylcyclopropyl)((CIS)-2-((((CIS)-4-isopropylcyclohexyl)oxy)methyl)-3-(1H-pyrazol-3-yl)piperidin-1-yl)methanone] |
| 5.74 | 98.1 | CCC(=O)N1CCC[C@H](c2cc[nH]n2)[C@@H]1CO[C@H]1CC[C@@H](C(C)C)CC1 (relative stereo) [Example 82, 1-((CIS)-2-((((CIS)-4-isopropylcyclohexyl)oxy)methyl)-3-(1H-pyrazol-3-yl)piperidin-1-yl)propan-1-one] |
| 7.08 | 73.9 | CC(C)[C@H]1CC[C@@H](OC[C@H]2[C@@H](c3cc[nH]n3)CCCN2C(=O)C2CCCC2)CC1 (relative stereo) [Example 83, cyclopentyl((CIS)-2-((((CIS)-4-isopropylcyclohexyl)oxy)methyl)-3-(1H-pyrazol-3-yl)piperidin-1-yl)methanone] |
| 7.14 | 71.1 | C=CCC(=O)N1CCC[C@H](c2cc[nH]n2)[C@@H]1CO[C@H]1CC[C@@H](C(C)C)CC1 (relative stereo) [Example 84, 1-((CIS)-2-((((CIS)-4-isopropylcyclohexyl)oxy)methyl)-3-(1H-pyrazol-3-yl)piperidin-1-yl)but-3-en-1-one] |
| 7.58 | 87 | C#CCCC(=O)N1CCC[C@H](c2cc[nH]n2)[C@@H]1CO[C@H]1CC[C@@H](C(C)C)CC1 (relative stereo) [Example 85, 1-((CIS)-2-((((CIS)-4-isopropylcyclohexyl)oxy)methyl)-3-(1H-pyrazol-3-yl)piperidin-1-yl)pent-4-yn-1-one] |
| 8.39 | 64.7 | C#CCCCC(=O)N1CCC[C@H](c2cc[nH]n2)[C@@H]1CO[C@H]1CC[C@@H](C(C)C)CC1 (relative stereo) [Example 86, 1-((CIS)-2-((((CIS)-4-isopropylcyclohexyl)oxy)methyl)-3-(1H-pyrazol-3-yl)piperidin-1-yl)hex-5-yn-1-one] |
| 8.81 | 78.7 | COC(C)(C)C(=O)N1CCC[C@H](c2cc[nH]n2)[C@@H]1CO[C@H]1CC[C@@H](c2ccccc2)CC1 (relative stereo) [Example 87, 2-methoxy-2-methyl-1-((CIS)-2-((((CIS)-4-phenylcyclohexyl)oxy)methyl)-3-(1H-pyrazol-3-yl)piperidin-1-yl)propan-1-one] |
| 8.98 | 79 | CC(C)[C@H]1CC[C@@H](OC[C@H]2[C@@H](c3cc[nH]n3)CCCN2C(=O)CCC2CC2)CC1 (relative stereo) [Example 88, 3-cyclopropyl-1-((CIS)-2-((((CIS)-4-isopropylcyclohexyl)oxy)methyl)-3-(1H-pyrazol-3-yl)piperidin-1-yl)propan-1-one] |
| 6.7 | 81 | CC1(C)C[C@H]1C(=O)N1CCC[C@H](c2cc[nH]n2)[C@@H]1COC1CCC(c2ccccc2)CC1 (relative stereo) [Example 91, ((R)-2,2-dimethylcyclopropyl)((CIS)-2-((((CIS)-4-phenylcyclohexyl)oxy)methyl)-3-(1H-pyrazol-3-yl)piperidin-1-yl)methanone] |
| 6.9 | 88.6 | O=C(C1CC1(F)F)N1CCC[C@H](c2cc[nH]n2)[C@@H]1CO[C@H]1CC[C@@H](c2ccccc2)CC1 (relative stereo) [Example 92, (2,2-difluorocyclopropyl)((CIS)-2-((((CIS)-4-phenylcyclohexyl)oxy)methyl)-3-(1H-pyrazol-3-yl)piperidin-1-yl)methanone] |
| 5.22 | 28.5 | CC(C)[C@H]1CC[C@@H](OC[C@H]2[C@@H](c3cc[nH]n3)CCCN2C(=O)OCc2ccccc2Cl)CC1 (relative stereo) [Example 93, 2-chlorobenzyl (CIS)-2-((((CIS)-4-isopropylcyclohexyl)oxy)methyl)-3-(1H-pyrazol-3-yl)piperidine-1-carboxylate] |
| 8.77 | 79.7 | C#CCOC(=O)N1CCC[C@H](c2cc[nH]n2)[C@@H]1CO[C@H]1CC[C@@H](C(C)C)CC1 (relative stereo) [Example 95, prop-2-yn-1-yl (CIS)-2-((((CIS)-4-isopropylcyclohexyl)oxy)methyl)-3-(1H-pyrazol-3-yl)piperidine-1-carboxylate] |
| 0.754 | 91.3 | O=C(OCC(F)F)N1CCC[C@H](c2cc[nH]n2)[C@@H]1CO[C@H]1CC[C@@H](c2ccccc2)CC1 (relative stereo) [Example 96, 2,2-difluoroethyl (CIS)-2-((((CIS)-4-phenylcyclohexyl)oxy)methyl)-3-(1H-pyrazol-3-yl)piperidine-1-carboxylate] |
| 0.892 | 99.1 | CC(=O)COC(=O)N1CCC[C@H](c2cc[nH]n2)[C@@H]1CO[C@H]1CC[C@@H](c2ccccc2)CC1 (relative stereo) [Example 97, 2-oxopropyl (CIS)-2-((((CIS)-4-phenylcyclohexyl)oxy)methyl)-3-(1H-pyrazol-3-yl)piperidine-1-carboxylate] |
